From patent US20250057819A1, “DRUG COMBINATIONS FOR INHIBITING CORONAVIRUS REPLICATION” (priority 2021, published 2025)
Structures can show the parent of a compound that is named as a salt.

Experiments:
rHCoVs-OC43 = assay: microbe, parasite or virus in culture; assay type: cell-based; details: for IC50: drug 2 alone (fast synergy screening table), read-out: IC50; for EC50: drug alone, HRT-18 cells, MOI 0.025, 48 h treatment, decrease of Rluc, read-out: EC50
SARS-CoV-2 [1] = assay: microbe, parasite or virus in culture; assay type: cell-based; details: for EC50: Severe acute respiratory syndrome coronavirus 2, Huh7.5, 48 h, read-out: SARS-CoV-2 EC50
[2] = Cell viability assay (MTT) in Huh7.5 cells; assay type: cell-based, human; details: human, Huh7.5 cells, Huh7.5 (B), read-out: SARS-CoV-2 CC50
Experimental: (§1) Cell viability was monitored by a mitochondrial activity test using methyl-thiazolyl-tetrazolium (MTT, Sigma). After 48 hours of drug treatment, cells were treated with 1 mg/ml of MTT during 3 hours at 37° C. The supernatants were removed and the MTT crystals were dissolved using DMSO and a shaker. The absorbance was read with a Tecan Spark at 570 nm with reference at 650 nm.
(§2) Only the most promising molecules or those studied in synergy were tested in Calu3 cells.

[3] = Cell viability assay (MTT) in HRT-18 cells; details: human, CC50 (μM)
[4] = Cell viability assay (MTT) in Calu3 cells; assay type: cell-based, Human; details: human, Calu3 cells, Calu3 (C), read-out: SARS-CoV-2 CC50
Experimental: as §1, §2

SARS-CoV-2 [5] = assay: Drug tests in SARS-CoV-2 model, Calu3 cells, viral titration by plaque assay in Vero E6; details: read-out: SARS-CoV-2 EC50; Calu3 (C), MOI 0.05, 48 h treatment
HRT-18 cells = assay: Cell viability assay (MTT) in HRT-18 cells
[6] = drug 2 alone (fast synergy screening table)
[7] = drug alone, HRT-18 cells, 48 h treatment, MTT

## CN1CCN(CCCN2c3ccccc3Sc3ccc(C(F)(F)F)cc32)CC1 [Trifluoperazine dihydrochloride]
rHCoVs-OC43; 48 h
  IC50: 2.9 µM
rHCoVs-OC43
  IC50: 2.9 µM
  EC50: 2.9 µM
SARS-CoV-2 [1]
  EC50: > 10 µM
SARS-CoV-2 [1]; drug alone, SARS-CoV-2, words
  inhibitory effect on viral replication: did not show any significant inhibition of viral replication
[2]
  CC50 at 48 h: > 10 µM
[3]; [6]
  CC50 at 48 h: > 10 µM
[3]; [7]
  CC50 at 48 h: > 10 µM

## Oc1c(Cl)cc(Cl)c(Cl)c1Cc1c(O)c(Cl)cc(Cl)c1Cl [Hexachlorophene]
rHCoVs-OC43; 48 h
  IC50: 0.39 µM
rHCoVs-OC43
  EC50: 0.39 µM

## COc1cc2nc(N3CCN(C(=O)C4COc5ccccc5O4)CC3)nc(N)c2cc1OC (stereo not drawn) [Doxazosin mesylate]
rHCoVs-OC43
  EC50: 3.2 µM
[3]; [7]
  CC50 at 48 h: > 10 µM

## CCN(CC)CCOc1ccc2c(c1)C(=O)c1cc(OCCN(CC)CC)ccc1-2 [Tilorone dihydrochloride]
rHCoVs-OC43
  EC50: 0.014 µM
SARS-CoV-2 [1]
  EC50: 0.5 µM
[2]
  CC50 at 48 h: > 10 µM
[4]
  CC50 at 48 h: > 10 µM
[3]; [7]
  CC50 at 48 h: > 10 µM
SARS-CoV-2 [5]
  EC50: 0.07 µM

## CCN(CC)Cc1cc(Nc2ccnc3cc(Cl)ccc23)ccc1O [Amodiaquine]
rHCoVs-OC43; 48 h
  IC50: 1.2 µM
rHCoVs-OC43
  IC50: 1.2 µM
  EC50: 1.2 µM
[3]; [6]
  CC50 at 48 h: > 10 µM
[3]; [7]
  CC50 at 48 h: > 10 µM

## COC(=O)C1=C(C)NC(C)=C(C(=O)OCC(C)C)C1c1ccccc1[N+](=O)[O-] (stereo not drawn) [Nisoldipine]
rHCoVs-OC43
  EC50: 2.35 µM
[3]; [7]
  CC50 at 48 h: > 10 µM

## Cc1ccc(Sc2ccccc2N2CCNCC2)c(C)c1 [Vortioxetine hydrobromide]
rHCoVs-OC43
  EC50: 2.4 µM
[3]; [7]
  CC50 at 48 h: > 10 µM

## Benproperine phosphate
rHCoVs-OC43
  EC50: 5.6 µM
HRT-18 cells; [7]
  CC50: > 10 µM

## CCN(CC)CCOc1ccc(C(=C(Cl)c2ccccc2)c2ccccc2)cc1 [Clomiphene citrate]
[3]; [6]
  CC50 at 48 h: > 10 µM
[3]; [7]
  CC50 at 48 h: > 10 µM

## CC(=O)Oc1ccccc1C(=O)Nc1ncc([N+](=O)[O-])s1 [Nitazoxanide]
rHCoVs-OC43; 48 h
  IC50: 1.33 µM
rHCoVs-OC43
  EC50: 1.33 µM
SARS-CoV-2 [1]
  EC50: 0.54 µM
[2]
  CC50 at 48 h: > 10 µM
[3]; [6]
  CC50 at 48 h: > 10 µM
[3]; [7]
  CC50 at 48 h: > 10 µM

## CN(C)CC/C=C1/c2ccccc2Sc2ccc(Cl)cc21 [Chlorprothixene]
rHCoVs-OC43
  EC50: 7.5 µM
[3]; [7]
  CC50 at 48 h: > 10 µM

## CCCCCCCCc1ccc(CCC(N)(CO)CO)cc1 [Fingolimod hydrochloride]
rHCoVs-OC43; 48 h
  IC50: 3.9 µM
rHCoVs-OC43
  IC50: 3.9 µM
  EC50: 3.9 µM
[3]; [6]
  CC50 at 48 h: > 10 µM
[3]; [7]
  CC50 at 48 h: 10 µM

## Cc1ccc(Sc2ccccc2N2CCNCC2)c(C)c1 [Vortioxetine]
rHCoVs-OC43; 48 h
  IC50: 2.4 µM
rHCoVs-OC43
  IC50: 2.4 µM
[3]; [6]
  CC50 at 48 h: > 10 µM

## C[C@H]1O[C@@H](O[C@H]2[C@@H](O)C[C@H](O[C@H]3[C@@H](O)C[C@H](O[C@H]4CC[C@@]5(C)[C@H](CC[C@@H]6[C@@H]5CC[C@]5(C)[C@@H](C7=CC(=O)OC7)CC[C@]65O)C4)O[C@@H]3C)O[C@@H]2C)C[C@H](O)[C@@H]1O [Digitoxin]
rHCoVs-OC43; 48 h
  IC50: 0.021 µM
rHCoVs-OC43
  EC50: 0.021 µM
[3]; [6]
  CC50 at 48 h: 0.08 µM
[3]; [7]
  CC50 at 48 h: 0.08 µM

## CSc1ccc2c(c1)N(CCC1CCCCN1C)c1ccccc1S2 (stereo not drawn) [Thioridazine hydrochloride]
[3]; [6]
  CC50 at 48 h: > 10 µM
[3]; [7]
  CC50 at 48 h: > 10 µM

## Monesin sodium sulfate
rHCoVs-OC43
  IC50: 0.029 µM
  EC50: 0.029 µM
HRT-18 cells; [6]
  CC50: 0.9 µM
HRT-18 cells; [7]
  CC50: 0.9 µM

## CC/C(=C(\c1ccccc1)c1ccc(OCCN(C)C)cc1)c1ccccc1 [Tamoxifen]
[3]; [7]
  CC50 at 48 h: > 10 µM

## Cc1nc2n(c(=O)c1CCN1CCC(c3noc4cc(F)ccc34)CC1)CCCC2 [Risperidone]
[3]; [7]
  CC50 at 48 h: > 10 µM

## CN(C)CCCN1c2ccccc2CCc2ccc(Cl)cc21 [Clomipramine hydrochloride]
[3]; [7]
  CC50 at 48 h: > 10 µM

## CCOC(=O)C1=C(COCCN)NC(C)=C(C(=O)OC)C1c1ccccc1Cl (stereo not drawn) [Amlodipine benzenesulphonate]
rHCoVs-OC43; 48 h
  IC50: 5.2 µM
rHCoVs-OC43
  IC50: 5.2 µM
  EC50: 5.2 µM
[3]; [6]
  CC50 at 48 h: > 10 µM
[3]; [7]
  CC50 at 48 h: > 10 µM

## CCCC(=O)O[C@]1(C(=O)CCl)[C@H](C)C[C@@H]2[C@@H]3CCC4=CC(=O)C=C[C@]4(C)[C@]3(F)C(=O)C[C@@]21C [Clobetasone butyrate]
rHCoVs-OC43
  EC50: 8.5 µM
HRT-18 cells; [7]
  CC50: > 10 µM

## O=C(Nc1ccc(Oc2ccc(Cl)cc2)c(Cl)c1)c1cc(I)cc(I)c1O [Rafoxanide]
rHCoVs-OC43
  EC50: 6.9 µM
[3]; [7]
  CC50 at 48 h: > 10 µM
